ChEMBL document CHEMBL1201862, “PubChem BioAssay data set” (2004)
The source made the active and inactive calls.

Columns and labels:
[1] = molecular target: T1, Streptokinase A (Streptococcus pyogenes serotype M1, UniProt P10520); assay: viability-normalized secreted streptokinase activity reduction – plasminogen activation absorbance, OD405, dose response (AID 1914); type: functional, Streptococcus pyogenes M1 GAS;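 also: secreted streptokinase activity via plasminogen activation per viability signal from cell pellet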
T1 sequence (P10520 whole entry): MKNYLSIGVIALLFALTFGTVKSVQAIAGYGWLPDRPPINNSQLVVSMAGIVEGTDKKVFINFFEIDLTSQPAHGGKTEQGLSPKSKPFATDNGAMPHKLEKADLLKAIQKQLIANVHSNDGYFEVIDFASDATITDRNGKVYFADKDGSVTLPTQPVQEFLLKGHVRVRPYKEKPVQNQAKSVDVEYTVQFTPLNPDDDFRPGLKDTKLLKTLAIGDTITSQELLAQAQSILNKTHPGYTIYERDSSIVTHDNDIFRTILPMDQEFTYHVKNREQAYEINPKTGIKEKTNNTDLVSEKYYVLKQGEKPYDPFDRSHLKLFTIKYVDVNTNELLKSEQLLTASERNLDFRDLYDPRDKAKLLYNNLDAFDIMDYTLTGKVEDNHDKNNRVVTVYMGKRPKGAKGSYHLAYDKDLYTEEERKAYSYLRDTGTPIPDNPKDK

[2] = alpha-synuclein stem-loop luciferase translation blockers – H4 neuroglioma cells, luminescence, confirmation (AID 1988); type: functional, cell-based
[3] = system: INS1; assay: INS-1E survival protection against cytokine death – cell-based, luminescence, retest, dose response (AID 449756); type: functional; details: Rattus norvegicus;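 also: cell death triggered by IL-1 beta plus TNF-alpha plus IFN-gamma mixture; protective hits raise ATP signal compared with cytokine alone wells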
[4] = molecular target: ATP-dependent molecular chaperone HSP82 (Candida albicans (strain WO-1) (Yeast), UniProt C4YTQ8); assay: steroid-induced GRE reporter decrease in yeast – S. cerevisiae, luminescence, Hsp90 inhibitor project, dose response (AID 2400); type: functional, cell-based;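 also: beta-galactosidase luminescence from glucocorticoid response element reporter as proxy for Hsp90 function; inhibitor potency where signal loss means Hsp90 inhibition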
ATP-dependent molecular chaperone HSP82, sequence (C4YTQ8 whole entry): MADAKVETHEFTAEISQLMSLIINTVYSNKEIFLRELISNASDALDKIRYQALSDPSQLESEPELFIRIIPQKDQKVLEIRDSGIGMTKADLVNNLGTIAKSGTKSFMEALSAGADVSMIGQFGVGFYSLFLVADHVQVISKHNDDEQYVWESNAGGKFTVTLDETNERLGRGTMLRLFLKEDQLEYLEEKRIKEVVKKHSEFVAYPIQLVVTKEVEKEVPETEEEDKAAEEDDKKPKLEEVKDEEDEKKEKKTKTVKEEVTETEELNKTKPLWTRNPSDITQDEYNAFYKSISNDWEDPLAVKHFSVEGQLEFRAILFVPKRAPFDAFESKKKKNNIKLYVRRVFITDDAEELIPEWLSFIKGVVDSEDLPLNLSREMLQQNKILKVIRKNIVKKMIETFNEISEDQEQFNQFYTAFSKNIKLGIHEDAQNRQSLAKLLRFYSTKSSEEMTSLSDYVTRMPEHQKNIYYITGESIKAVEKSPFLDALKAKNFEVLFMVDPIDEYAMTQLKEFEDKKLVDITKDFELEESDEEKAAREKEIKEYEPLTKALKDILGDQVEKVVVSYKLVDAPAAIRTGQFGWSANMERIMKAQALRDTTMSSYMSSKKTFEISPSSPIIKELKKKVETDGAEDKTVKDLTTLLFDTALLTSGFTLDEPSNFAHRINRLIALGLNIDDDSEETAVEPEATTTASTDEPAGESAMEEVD

[5] = molecular target: T2, Sentrin-specific protease 6 (Homo sapiens, UniProt Q9GZR1); type: functional;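 also: Luminescence-based dose-response confirmatory assay of SENP6 inhibition, following up an ultra-high-throughput screen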
T2 sequence (Q9GZR1 whole entry): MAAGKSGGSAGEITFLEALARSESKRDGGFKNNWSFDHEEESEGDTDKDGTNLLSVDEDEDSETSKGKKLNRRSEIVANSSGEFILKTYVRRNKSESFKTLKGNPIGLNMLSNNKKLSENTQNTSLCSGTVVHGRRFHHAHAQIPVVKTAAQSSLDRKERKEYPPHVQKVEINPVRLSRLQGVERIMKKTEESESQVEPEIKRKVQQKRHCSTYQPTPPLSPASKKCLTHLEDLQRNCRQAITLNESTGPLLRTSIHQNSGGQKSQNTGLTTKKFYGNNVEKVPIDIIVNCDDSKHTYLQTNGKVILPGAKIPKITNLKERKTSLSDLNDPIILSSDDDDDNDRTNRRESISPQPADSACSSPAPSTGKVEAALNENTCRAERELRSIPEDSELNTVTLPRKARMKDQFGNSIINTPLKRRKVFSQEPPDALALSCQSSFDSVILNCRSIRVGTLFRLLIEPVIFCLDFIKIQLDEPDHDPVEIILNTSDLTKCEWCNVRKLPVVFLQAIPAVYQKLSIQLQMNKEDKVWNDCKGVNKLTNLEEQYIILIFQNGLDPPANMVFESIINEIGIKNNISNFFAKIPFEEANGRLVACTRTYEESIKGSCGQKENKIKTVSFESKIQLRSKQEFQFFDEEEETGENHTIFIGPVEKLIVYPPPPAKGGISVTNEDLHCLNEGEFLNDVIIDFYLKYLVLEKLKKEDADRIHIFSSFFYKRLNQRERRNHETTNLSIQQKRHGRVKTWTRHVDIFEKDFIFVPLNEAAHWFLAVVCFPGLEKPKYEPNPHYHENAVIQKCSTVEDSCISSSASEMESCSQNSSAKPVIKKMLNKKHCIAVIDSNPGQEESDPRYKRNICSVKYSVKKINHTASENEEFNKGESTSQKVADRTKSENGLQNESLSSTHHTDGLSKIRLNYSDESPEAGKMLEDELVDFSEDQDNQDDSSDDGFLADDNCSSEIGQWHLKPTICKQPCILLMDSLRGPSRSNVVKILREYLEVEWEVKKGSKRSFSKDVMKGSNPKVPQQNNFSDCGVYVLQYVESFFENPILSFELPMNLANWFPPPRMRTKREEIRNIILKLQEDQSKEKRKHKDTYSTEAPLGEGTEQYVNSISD

[6] = molecular target: Dual specificity tyrosine-phosphorylation-regulated kinase 1A (Homo sapiens, UniProt Q13627); type: functional;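 also: measured against DYRK1A as one member of a broad kinome profiling panel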
[7] = molecular target: ALK tyrosine kinase receptor (Homo sapiens, UniProt Q9UM73); type: functional;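 also: ALK tested as one member of a kinase panel screen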
[8] = molecular target: Death-associated protein kinase 3 (Homo sapiens, UniProt O43293); type: functional;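 also: measured as one member of a kinome-wide profiling panel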
[9] = molecular target: Serine/threonine-protein kinase D3 (Homo sapiens, UniProt O94806); type: functional;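 also: determined within a kinase panel screen, with PRKCN as the panel member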
[10] = molecular target: Ribosomal protein S6 kinase alpha-3 (Homo sapiens, UniProt P51812); type: functional;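 also: measured within a kinome-wide profiling panel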
Ribosomal protein S6 kinase alpha-3, sequence (P51812 whole entry): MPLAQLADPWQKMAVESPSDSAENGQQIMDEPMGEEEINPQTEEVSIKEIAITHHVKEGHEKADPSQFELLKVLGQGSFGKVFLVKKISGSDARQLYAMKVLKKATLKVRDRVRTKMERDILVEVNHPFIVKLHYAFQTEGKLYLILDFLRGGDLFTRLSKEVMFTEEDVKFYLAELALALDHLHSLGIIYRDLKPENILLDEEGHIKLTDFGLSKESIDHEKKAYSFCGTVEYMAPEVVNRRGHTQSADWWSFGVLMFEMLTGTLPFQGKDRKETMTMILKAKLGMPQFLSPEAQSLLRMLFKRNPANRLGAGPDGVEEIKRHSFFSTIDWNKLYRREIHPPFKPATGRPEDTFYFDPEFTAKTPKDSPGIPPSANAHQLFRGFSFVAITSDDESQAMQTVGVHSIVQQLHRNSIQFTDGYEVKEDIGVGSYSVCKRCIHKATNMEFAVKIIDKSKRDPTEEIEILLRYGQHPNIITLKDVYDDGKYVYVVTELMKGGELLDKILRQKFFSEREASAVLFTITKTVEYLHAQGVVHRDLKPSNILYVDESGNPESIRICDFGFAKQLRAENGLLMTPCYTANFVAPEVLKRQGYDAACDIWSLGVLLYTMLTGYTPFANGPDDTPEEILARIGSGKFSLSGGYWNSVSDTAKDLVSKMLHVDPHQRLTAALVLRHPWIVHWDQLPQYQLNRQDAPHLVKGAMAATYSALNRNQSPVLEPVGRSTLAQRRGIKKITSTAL

[11] = molecular target: Platelet-derived growth factor receptor alpha (Homo sapiens, UniProt P16234); assay: Navigating the Kinome. Panel member name: PDGFRA; type: functional
Platelet-derived growth factor receptor alpha, sequence (P16234 whole entry): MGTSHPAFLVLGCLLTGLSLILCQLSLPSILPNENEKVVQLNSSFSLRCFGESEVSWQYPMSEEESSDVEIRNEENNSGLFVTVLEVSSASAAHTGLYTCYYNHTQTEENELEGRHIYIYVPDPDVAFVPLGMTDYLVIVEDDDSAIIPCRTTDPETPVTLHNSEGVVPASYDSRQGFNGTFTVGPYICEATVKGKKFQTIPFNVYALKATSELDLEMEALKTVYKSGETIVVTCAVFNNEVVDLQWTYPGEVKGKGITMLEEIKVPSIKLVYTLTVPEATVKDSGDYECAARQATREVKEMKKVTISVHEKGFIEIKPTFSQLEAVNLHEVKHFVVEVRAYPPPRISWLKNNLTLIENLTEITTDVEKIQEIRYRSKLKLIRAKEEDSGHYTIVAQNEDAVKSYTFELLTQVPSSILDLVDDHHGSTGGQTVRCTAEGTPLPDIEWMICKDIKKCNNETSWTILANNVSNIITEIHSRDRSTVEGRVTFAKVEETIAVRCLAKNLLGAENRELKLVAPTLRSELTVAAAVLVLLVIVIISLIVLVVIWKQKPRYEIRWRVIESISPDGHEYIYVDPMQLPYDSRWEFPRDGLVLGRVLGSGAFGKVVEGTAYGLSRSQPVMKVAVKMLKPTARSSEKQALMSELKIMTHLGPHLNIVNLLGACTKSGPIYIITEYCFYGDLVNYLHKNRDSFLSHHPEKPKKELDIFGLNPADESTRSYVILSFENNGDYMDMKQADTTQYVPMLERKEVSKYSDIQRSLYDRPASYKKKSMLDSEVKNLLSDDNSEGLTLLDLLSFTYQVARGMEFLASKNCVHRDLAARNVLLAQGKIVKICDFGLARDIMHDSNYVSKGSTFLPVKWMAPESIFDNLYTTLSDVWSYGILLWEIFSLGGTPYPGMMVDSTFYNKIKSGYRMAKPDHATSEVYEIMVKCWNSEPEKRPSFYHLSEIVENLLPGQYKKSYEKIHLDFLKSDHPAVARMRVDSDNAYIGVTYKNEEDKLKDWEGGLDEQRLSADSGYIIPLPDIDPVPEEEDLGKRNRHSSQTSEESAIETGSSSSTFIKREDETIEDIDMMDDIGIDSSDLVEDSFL

[12] = molecular target: G protein-coupled receptor kinase 5 (Homo sapiens, UniProt P34947); assay: Navigating the Kinome. Panel member name: GPRK5; type: functional
G protein-coupled receptor kinase 5, sequence (P34947 whole entry): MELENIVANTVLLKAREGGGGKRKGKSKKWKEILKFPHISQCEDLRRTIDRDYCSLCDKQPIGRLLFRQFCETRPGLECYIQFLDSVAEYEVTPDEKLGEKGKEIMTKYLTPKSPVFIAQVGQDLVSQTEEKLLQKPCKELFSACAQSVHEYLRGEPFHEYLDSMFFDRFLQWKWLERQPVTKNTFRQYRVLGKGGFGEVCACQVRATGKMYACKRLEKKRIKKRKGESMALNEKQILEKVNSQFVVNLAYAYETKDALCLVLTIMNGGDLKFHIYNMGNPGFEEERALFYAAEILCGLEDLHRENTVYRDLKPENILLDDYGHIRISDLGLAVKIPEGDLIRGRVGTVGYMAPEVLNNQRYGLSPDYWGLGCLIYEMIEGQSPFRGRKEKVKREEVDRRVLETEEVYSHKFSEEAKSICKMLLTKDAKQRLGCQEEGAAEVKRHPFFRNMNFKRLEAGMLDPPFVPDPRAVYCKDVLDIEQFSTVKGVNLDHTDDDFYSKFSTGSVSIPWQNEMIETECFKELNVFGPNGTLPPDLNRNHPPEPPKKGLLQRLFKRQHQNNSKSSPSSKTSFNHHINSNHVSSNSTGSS

[13] = molecular target: Dual specificity protein kinase CLK4 (Homo sapiens, UniProt Q9HAZ1); type: functional
Dual specificity protein kinase CLK4, sequence (Q9HAZ1 whole entry): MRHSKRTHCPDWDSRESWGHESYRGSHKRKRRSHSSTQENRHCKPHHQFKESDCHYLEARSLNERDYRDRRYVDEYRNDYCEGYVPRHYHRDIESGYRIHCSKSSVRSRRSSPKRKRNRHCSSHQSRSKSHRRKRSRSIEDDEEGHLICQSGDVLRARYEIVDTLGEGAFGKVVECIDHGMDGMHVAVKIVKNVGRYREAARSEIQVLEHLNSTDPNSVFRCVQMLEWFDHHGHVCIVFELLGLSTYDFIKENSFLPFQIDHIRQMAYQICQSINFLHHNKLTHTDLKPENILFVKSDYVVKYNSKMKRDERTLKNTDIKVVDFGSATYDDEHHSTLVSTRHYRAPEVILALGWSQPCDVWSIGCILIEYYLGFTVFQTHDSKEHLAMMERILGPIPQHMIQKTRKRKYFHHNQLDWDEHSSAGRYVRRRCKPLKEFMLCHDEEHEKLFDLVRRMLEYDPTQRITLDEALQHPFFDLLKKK

[14] = molecular target: cAMP-dependent protein kinase catalytic subunit alpha (Homo sapiens, UniProt P17612); type: functional
[15] = molecular target: High affinity nerve growth factor receptor (Homo sapiens, UniProt P04629); type: functional;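 also: NTRK1 tested as one member of a kinome-wide profiling panel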
High affinity nerve growth factor receptor, sequence (P04629 whole entry): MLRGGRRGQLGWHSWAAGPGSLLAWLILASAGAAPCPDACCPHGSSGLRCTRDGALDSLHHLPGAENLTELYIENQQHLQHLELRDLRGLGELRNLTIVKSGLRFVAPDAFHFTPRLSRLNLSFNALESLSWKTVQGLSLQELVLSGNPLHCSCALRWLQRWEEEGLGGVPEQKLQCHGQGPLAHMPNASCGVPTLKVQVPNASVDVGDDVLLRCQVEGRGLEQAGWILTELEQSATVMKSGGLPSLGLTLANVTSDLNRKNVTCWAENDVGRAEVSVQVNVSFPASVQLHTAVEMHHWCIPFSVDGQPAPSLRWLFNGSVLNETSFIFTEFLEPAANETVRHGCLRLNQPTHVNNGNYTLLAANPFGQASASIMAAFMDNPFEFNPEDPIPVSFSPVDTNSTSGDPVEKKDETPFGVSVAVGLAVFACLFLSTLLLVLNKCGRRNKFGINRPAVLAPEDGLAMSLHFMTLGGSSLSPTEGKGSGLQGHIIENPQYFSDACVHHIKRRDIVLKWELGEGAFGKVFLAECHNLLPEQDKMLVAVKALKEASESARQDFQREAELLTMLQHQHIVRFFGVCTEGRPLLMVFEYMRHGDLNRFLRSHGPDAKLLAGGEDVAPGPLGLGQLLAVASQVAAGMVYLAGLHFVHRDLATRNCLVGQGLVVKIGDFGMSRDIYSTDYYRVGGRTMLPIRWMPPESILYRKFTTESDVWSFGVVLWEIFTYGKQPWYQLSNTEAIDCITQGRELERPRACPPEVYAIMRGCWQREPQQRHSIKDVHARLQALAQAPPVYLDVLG

[16] = molecular target: Insulin-like growth factor 1 receptor (Homo sapiens, UniProt P08069); assay: Navigating the Kinome. Panel member name: IGF1R; type: functional
[17] = molecular target: Mitogen-activated protein kinase 8 (Homo sapiens, UniProt P45983); type: functional;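 also: value comes from one member of a kinome-wide kinase profiling panel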
Mitogen-activated protein kinase 8, sequence (P45983 whole entry): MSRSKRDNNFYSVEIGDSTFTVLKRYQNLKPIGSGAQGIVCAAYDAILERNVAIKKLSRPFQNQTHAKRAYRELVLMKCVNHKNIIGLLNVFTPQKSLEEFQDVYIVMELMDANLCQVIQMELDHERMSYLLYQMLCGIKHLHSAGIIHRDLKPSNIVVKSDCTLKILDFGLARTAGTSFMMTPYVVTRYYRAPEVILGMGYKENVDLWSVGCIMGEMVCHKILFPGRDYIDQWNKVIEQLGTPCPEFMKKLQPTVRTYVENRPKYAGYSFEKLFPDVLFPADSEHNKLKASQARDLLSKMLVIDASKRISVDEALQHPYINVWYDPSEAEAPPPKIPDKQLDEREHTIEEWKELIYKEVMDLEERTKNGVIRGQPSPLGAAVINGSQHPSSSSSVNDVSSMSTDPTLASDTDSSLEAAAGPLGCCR

## CN1CCN(C(c2ccc(C(F)(F)F)cc2)c2cc(Cl)c3cccnc3c2O)CC1 (configuration not stated)
[1]
  EC50: > 150 µM (not active)
[2]
  EC50: 8.87 µM (active)
[3]
  AC50: 3.18 µM (active)
[4]
  EC50: 6.72 µM (active)

## NC(=O)c1c(NC(=O)c2cc3ccccc3o2)sc2c1CCC2
[5]
  IC50: 17.2 µM (active)

## O=C(NC(CCO)c1ccccc1)c1ccc(-c2ccncc2)cc1 (configuration not stated)
[6]
  Ki: > 2 µM (inactive)
[7]
  Ki: > 6.31 µM (inactive)
[8]
  Ki: > 5.01 µM (inactive)
[9]
  Ki: > 3.98 µM (inactive)
[10]
  Ki: > 3.98 µM (inactive)
[11]
  Ki: > 2.51 µM (inactive)
[12]
  Ki: > 3.98 µM (inactive)
[13]
  Ki: 0.316 µM (active)
[14]
  Ki: 0.0316 µM (active)
[15]
  Ki: > 3.16 µM (inactive)
[16]
  Ki: > 2.51 µM (inactive)
[17]
  Ki: > 5.01 µM (inactive)
